The assay is described as follows: Concentration tested in vitro to inhibit PAF-induced maximum aggregation (PAF-Antagonistic activity) by 50%.

pIC50: −log10 of the molar value. Structures can show the parent of a compound that is named as a salt.

A word on the pIC50: it is −log10 of the IC50, conventionally taken in molar units. Read a low pIC50 as a large IC50. On to `COc1cc(CCC(=O)N2CCN(C(=O)c3cc(OC)c(OC)c(OC)c3)CC2)cc(OC)c1OC`, for which the pIC50 is 4.14. As for `N#CC(c1cccnc1)N1CCN(C(=O)CNC(Cc2ccccc2)c2ccccc2)CC1` (configuration not stated), the figure is 7.30; as for `N#CC(c1cccnc1)N1CCN(C(=O)CNCC(c2ccccc2)c2ccccc2)CC1` (configuration not stated), 6.66; as for `N#CC(CN1CCN(C(=O)C(c2ccccc2)c2ccccc2)CC1)c1cccnc1` (configuration not stated), 5.64.

`COc1cc(C(=O)N2CCN(C(=S)c3cccnc3)CC2)cc(OC)c1OC` gave a negative-log IC50 (pIC50) of 5.89. Molecule `CC(c1cccnc1)N1CCN(C(=O)C(c2ccccc2)c2ccccc2)CC1` (configuration not stated) had a negative-log IC50 (pIC50) of 5.92. In turn, `N#CC(c1cccc([N+](=O)[O-])c1)N1CCN(C(=O)CC(c2ccccc2)c2ccccc2)CC1` (configuration not stated) had a pIC50 of 4.96.

In the case of `CCCCCCCC(=O)N1CCN(C(C#N)c2cccnc2)CC1` (configuration not stated), the pIC50 was 6.04.

With `N#CC(c1cccnc1)N1CCN(CCNC(=O)C(c2ccccc2)c2ccccc2)CC1` (configuration not stated), the pIC50 is 7.44. The same measure for `N#CC(=C1CCN(C(=O)CC(c2ccccc2)c2ccccc2)CC1)c1cccnc1`: 7.59; for `N#CC(c1cccnc1)N1CCN(C(=O)NC(c2ccccc2)c2ccccc2)CC1` (configuration not stated): 6.44. As for `O=C(CC(c1ccccc1)c1ccccc1)N1CCN(Cc2cccnc2)CC1`, the figure is 6.28. As for `O=C(c1cccnc1)N1CCN(C(=O)C(c2ccccc2)c2ccccc2)CC1`, the figure is 4.64; as for `N#CC1(Nc2cccnc2)CCN(C(=O)CNC(c2ccccc2)c2ccccc2)CC1`, 6.70.

`N#CC(c1cncs1)N1CCN(C(=O)CC(c2ccccc2)c2ccccc2)CC1` (configuration not stated) gave a pIC50 of 7.68. As for `N#CC(c1cccnc1)N1CCN(C(=O)Cc2ccccc2)CC1` (configuration not stated), the figure is 5.57; as for `COc1cc(CC(=O)N2CCN(C(C#N)c3cccnc3)CC2)cc(OC)c1OC` (configuration not stated), 6.34. As for `N#CC(c1cccnc1)C1CCN(C(=O)CNC(c2ccccc2)c2ccccc2)CC1` (configuration not stated), the figure is 7.62; as for `N#Cc1cccc(C(C#N)N2CCN(C(=O)CC(c3ccccc3)c3ccccc3)CC2)c1` (configuration not stated), 5.13; as for `N#CC(c1ccncc1)N1CCN(C(=O)CC(O)(c2ccccc2)c2ccccc2)CC1` (configuration not stated), 8.57. The same measure for `CC(C)(C)C(=O)N1CCN(C(C#N)c2cccnc2)CC1` (configuration not stated): 5.28. `N#CC1(Nc2cccnc2)CCN(C(=O)CC(c2ccccc2)c2ccccc2)CC1` gave a pIC50 of 7.82.

In turn, `N#CC(c1cccnc1)N1CCN(C(=O)Cc2ccc3ccccc3c2)CC1` (configuration not stated) gave a pIC50 of 6.14. As for `N#CC(c1cccc(C(F)(F)F)c1)N1CCN(C(=O)CC(c2ccccc2)c2ccccc2)CC1` (configuration not stated), the figure is 5.05; as for `N#CC(c1cccnc1)N1CCN(C(=O)CCCc2ccccc2)CC1` (configuration not stated), 6.59.

Take `CC(c1ccccc1)N(C)CC(=O)N1CCN(C(C#N)c2cccnc2)CC1` (configuration not stated): the pIC50 is 6.62. Molecule `N#CC(c1cccnc1)N1CCN(C(=O)C(CCc2ccccc2)c2ccccc2)CC1` (configuration not stated) had a negative-log IC50 (pIC50) of 5.59. The same measure for `N#CC(c1cccnc1)N1CCN(C(=O)Cc2cccc3ccccc23)CC1` (configuration not stated): 7.12. As for `O=C(C(c1ccccc1)c1ccccc1)N1CCN(Cc2cccnc2)CC1`, the pIC50 is 5.59. The same measure for `N#CC(c1cccnc1)N1CCN(C(=O)C(Cc2ccccc2)c2ccccc2)CC1` (configuration not stated): 6.64; for `O=C(C(c1ccccc1)c1ccccc1)N1CC[N+]([O-])(Cc2cccnc2)CC1`: 4.36. The molecule `N#CC(c1cccnc1)N1CCN(C(=O)CNCCC(c2ccccc2)c2ccccc2)CC1` (configuration not stated) gave a pIC50 of 7.07. The same measure for `COc1cc(C(=O)N2CCN(C(=O)c3cc(OC)c(OC)c(OC)c3)CC2)cc(OC)c1OC`: 5.03; for `N#CC(c1cccnc1)N1CCN(C(=O)C(c2ccccc2)c2ccccc2)CC1` (configuration not stated): 8.00; for `N#CC(c1cccnc1)N1CCN(C(=O)CN(Cc2ccccc2)Cc2ccccc2)CC1` (configuration not stated): 7.49. As for `N#CC(c1cccnc1)N1CCN(C(=O)/C(=C/c2ccccc2)c2ccccc2)CC1` (configuration not stated), the figure is 8.12; as for `N#CC(c1cccnc1)N1CCN(CC(=O)NCCC(c2ccccc2)c2ccccc2)CC1` (configuration not stated), 6.62.

Molecule `CN(CC(=O)N1CCN(C(C#N)c2cccnc2)CC1)C(c1ccccc1)c1ccccc1` (configuration not stated) showed a pIC50 of 7.22. As for `N#CC(c1ccncc1)N1CCN(C(=O)CNC(=O)C(c2ccccc2)c2ccccc2)CC1` (configuration not stated), the figure is 6.17; as for `Cn1cccc1C(C#N)N1CCN(C(=O)CC(c2ccccc2)c2ccccc2)CC1` (configuration not stated), 4.60; as for `CN(CC(=O)N1CCN(C(C#N)c2cccnc2)CC1)c1ccccc1` (configuration not stated), 5.55. `CN(C)c1ccc(C(C#N)N2CCN(C(=O)CC(c3ccccc3)c3ccccc3)CC2)cc1` (configuration not stated) showed a negative-log IC50 (pIC50) of 3.68. The same measure for `Cn1ccc(C(C#N)N2CCN(C(=O)CC(c3ccccc3)c3ccccc3)CC2)c1` (configuration not stated): 5.59; for `N#CC(c1cccnc1)C1CCN(C(=O)C(c2ccccc2)c2ccccc2)CC1` (configuration not stated): 7.68. In turn, `N#CC(c1cccnc1)N1CCN(C(=O)CNc2ccccc2)CC1` (configuration not stated) had a pIC50 of 6.89. As for `O=C(CC(c1ccccc1)c1ccccc1)N1CCN(C(=O)c2cc[n+]([O-])cc2)CC1`, the figure is 5.72; as for `NC(=O)C(c1cccnc1)N1CCN(C(=O)C(c2ccccc2)c2ccccc2)CC1` (configuration not stated), 3.70. The same measure for `COc1cc(C(=O)N2CCN(C(=O)c3cccnc3)CC2)cc(OC)c1OC`: 5.28; for `N#CC(c1cccnc1)N1CCN(CCNC(=O)CC(c2ccccc2)c2ccccc2)CC1` (configuration not stated): 5.26.

`N#CC(c1cccnc1)N1CCN(CCC(c2ccccc2)c2ccccc2)CC1` (configuration not stated) had a pIC50 of 6.20. As for `CC(NCC(=O)N1CCN(C(C#N)c2cccnc2)CC1)c1ccccc1` (configuration not stated), the figure is 7.44; as for `N#CC(c1cccnc1)N1CCN(C(=O)CN(Cc2ccccc2)c2ccccc2)CC1` (configuration not stated), 7.62.

`O=C(CC(c1ccccc1)c1ccccc1)N1CCN(C(=O)c2ccncc2)CC1` gave a pIC50 of 5.72. The same measure for `CCCCC(=O)N1CCN(C(C#N)c2cccnc2)CC1` (configuration not stated): 5.59; for `N#CC(c1cccc(Cl)c1)N1CCN(C(=O)CC(c2ccccc2)c2ccccc2)CC1` (configuration not stated): 4.68.

In turn, `N#CC(c1cccnc1)N1CCN(C(=S)C(c2ccccc2)c2ccccc2)CC1` (configuration not stated) had a pIC50 of 7.64. As for `N#CC(c1cccnc1)N1CCN(C(=O)/C=C/c2ccccc2)CC1` (configuration not stated), the figure is 5.60; as for `Cn1cc(C(C#N)N2CCN(C(=O)CC(c3ccccc3)c3ccccc3)CC2)c2ccccc21` (configuration not stated), 5.24; as for `CC(C#N)(c1cccnc1)N1CCN(C(=O)C(c2ccccc2)c2ccccc2)CC1` (configuration not stated), 6.62.

In turn, `N#CC(c1ccncc1)N1CCN(CCNC(c2ccccc2)c2ccccc2)CC1` (configuration not stated) had a pIC50 of 7.44. As for `COc1cc(C(=O)N2CCN(C(C#N)c3ccccn3)CC2)cc(OC)c1OC` (configuration not stated), the figure is 4.36; as for `N#CC(c1cccnc1)N1CCN(C(=O)CNc2cccc3ccccc23)CC1` (configuration not stated), 5.59.

`CCCCCCCCCCCCCCCC(=O)N1CCN(C(C#N)c2cccnc2)CC1` (configuration not stated) showed a negative-log IC50 (pIC50) of less than 3.70. On to `N#CC(c1ccncc1)N1CCN(C(=O)CCNC(c2ccccc2)c2ccccc2)CC1` (configuration not stated), for which the negative-log IC50 (pIC50) was 7.26. In the case of `N#CC(c1cccnc1)N1CCN(C(=O)Cc2c[nH]c3ccccc23)CC1` (configuration not stated), the pIC50 was 6.35. As for `N#CC(c1cccnc1)N1CCN(C(=O)CNCCCc2ccccc2)CC1` (configuration not stated), the figure is 6.28; as for `O=C(CC(c1ccccc1)c1ccccc1)N1CCC(Nc2cccnc2)CC1` [3,3-Diphenyl-1-[4-(pyridin-3-ylamino)-piperidin-1-yl]-propan-1-one; dihydrochloride; hydrate], 7.06; as for `N#CC(c1cccnc1)N1CCC(OC(=O)CC(c2ccccc2)c2ccccc2)CC1` (configuration not stated) [3,3-Diphenyl-propionic acid 1-(cyano-pyridin-3-yl-methyl)-piperidin-4-yl ester; dihydrochloride; hydrate], 5.59. The same measure for `N#CC(c1cccnc1)N1CCN(C(=O)OCC(c2ccccc2)c2ccccc2)CC1` (configuration not stated) [4-(Cyano-pyridin-3-yl-methyl)-piperazine-1-carboxylic acid 2,2-diphenyl-ethyl ester; dihydrochloride; hydrate]: 7.59; for `N#CC(c1cccnc1)N1CCN(C(=O)c2ccccc2)CC1` (configuration not stated) [(4-Benzoyl-piperazin-1-yl)-pyridin-3-yl-acetonitrile; dihydrochloride]: 5.32.

As for `COc1cc(C(=O)N2CCN(Cc3cccnc3)CC2)cc(OC)c1OC` [(4-Pyridin-3-ylmethyl-piperazin-1-yl)-(3,4,5-trimethoxy-phenyl)-methanone; dihydrochloride; hydrate], the pIC50 is 4.77. As for `CN(CCCc1ccccc1)CC(=O)N1CCN(C(C#N)c2cccnc2)CC1` (configuration not stated) [(4-{2-[Methyl-(3-phenyl-propyl)-amino]-acetyl}-piperazin-1-yl)-pyridin-3-yl-acetonitrile; dihydrochloride; hydrate], the figure is 5.66. `COc1cc(C(=O)N2CCN(C(C#N)c3cccnc3)CC2)cc(OC)c1OC` (configuration not stated) [Pyridin-3-yl-[4-(3,4,5-trimethoxy-benzoyl)-piperazin-1-yl]-acetonitrile; dihydrochloride; hydrate] had a negative-log IC50 (pIC50) of 5.72.

`COc1cc(CCC(=O)N2CCN(C(C#N)c3cccnc3)CC2)cc(OC)c1OC` (configuration not stated) [Pyridin-3-yl-{4-[3-(3,4,5-trimethoxy-phenyl)-propionyl]-piperazin-1-yl}-acetonitrile; dihydrochloride; hydrate] had a pIC50 of 6.40. As for `CC(C(=O)N1CCN(C(C#N)c2cccnc2)CC1)(c1ccccc1)c1ccccc1` (configuration not stated) [[4-(2,2-Diphenyl-propionyl)-piperazin-1-yl]-pyridin-3-yl-acetonitrile; dihydrochloride], the figure is 8.72; as for `N#CC(c1cccnc1)N1CCN(C(=O)C(Cc2ccccc2)Cc2ccccc2)CC1` (configuration not stated) [[4-(2-Benzyl-3-phenyl-propionyl)-piperazin-1-yl]-pyridin-3-yl-acetonitrile; dihydrochloride; hydrate], 7.96. The same measure for `N#CC(c1cccnc1)N1CCN(C(=O)CNCc2ccccc2)CC1` (configuration not stated) [[4-(2-Benzylamino-acetyl)-piperazin-1-yl]-pyridin-3-yl-acetonitrile; dihydrochloride; hydrate]: 6.62.
